Where a name gives a salt, the structure may show the parent alone. Read-outs that look alike come from different tables or passages of the source.
Tests used:
[1] = format: physicochemical
Excerpt: |Thermal stability data: for crystalline calcium |pseudomate dihydrate, amorphous calcium pseudomonate |Percentage |Initial |Potency |after |Storage ** | ** Expressed as percentage of initial purity.

[2] = Water solubility; format: physicochemical; details: amorphous form

| Structure (SMILES) | thermal stability (in words) [1] | Percentage Initial Potency after Storage ([1]; 192 h) | Percentage Initial Potency after Storage ([1]; 240 h) | water solubility (in words) [2] |
| --- | --- | --- | --- | --- |
| CC(=CC(=O)OCCCCCCCCC(=O)O)CC1OCC(CC2OC2C(C)C(C)O)C(O)C1O (stereo not shown) [Anhydrous Amorphous Calcium Salt, Amorphous Anhydrous Calcium Pseudomonate A] | poor thermal stability | 29% | 83.3% | sparingly water soluble |
| C/C(=C\C(=O)OCCCCCCCCC(=O)O)C[C@@H]1OC[C@H](C[C@@H]2O[C@H]2[C@@H](C)[C@H](C)O)[C@@H](O)[C@H]1O [Pseudomonic Acid, Pseudomonic acid] |  | 0% | 77.9% |  |
| CC(=CC(=O)OCCCCCCCCC(=O)O)CC1OCC(CC2OC2C(C)C(C)O)C(O)C1O (stereo not shown) [crystalline calcium pseudomonate, calcium pseudomonate] | outstandingly good thermal stability |  |  |  |

From patent publication US5191093A, “Process for preparing crystalline calcium pseudomonate” (Beecham Group p.l.c., priority 1990, dated 1993)
